In patent US12440484B2, “1,3,4-oxadiazole homophthalimide derivative compounds as histone deacetylase 6 inhibitor, and the pharmaceutical composition comprising the same” (Chong Kun Dang Pharmaceutical Corp., priority 2019, dated 2025):

Columns and labels:
HDAC6 human recombinant = HDAC6 human recombinant (Homo sapiens (Human), UniProt Q9UBN7); test: HDAC enzyme activity inhibition (in vitro), HDAC6 assay; format: biochemical; conditions: samples at 0.1, 1, 10, 100 and 1000 nM; 37° C. 60 minutes; fluorescence Ex 390, Em 460
HDAC1 = HDAC1 (Homo sapiens (Human), UniProt Q13547); test: HDAC enzyme activity inhibition (in vitro), HDAC1 Fluorimetric Drug Discovery Assay Kit; format: biochemical; conditions: samples at 100, 1000 and 10000 nM; 37° C. 60 minutes; fluorescence Ex 390, Em 460
Chain of HDAC1 (Q13547 whole entry): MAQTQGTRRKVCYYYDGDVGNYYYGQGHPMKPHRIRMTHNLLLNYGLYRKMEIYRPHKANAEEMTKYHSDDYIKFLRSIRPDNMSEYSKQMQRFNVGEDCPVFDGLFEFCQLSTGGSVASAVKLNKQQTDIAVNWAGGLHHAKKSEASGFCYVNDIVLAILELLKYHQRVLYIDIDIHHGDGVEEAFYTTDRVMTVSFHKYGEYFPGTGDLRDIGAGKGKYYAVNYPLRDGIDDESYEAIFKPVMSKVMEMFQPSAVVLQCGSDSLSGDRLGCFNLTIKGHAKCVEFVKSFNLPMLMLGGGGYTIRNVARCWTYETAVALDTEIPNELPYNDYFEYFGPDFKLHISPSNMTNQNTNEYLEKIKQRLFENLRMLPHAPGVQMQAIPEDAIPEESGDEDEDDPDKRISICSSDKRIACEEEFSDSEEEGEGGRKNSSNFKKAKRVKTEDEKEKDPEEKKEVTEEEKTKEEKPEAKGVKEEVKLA

Chain of HDAC6 human recombinant (Q9UBN7 whole entry): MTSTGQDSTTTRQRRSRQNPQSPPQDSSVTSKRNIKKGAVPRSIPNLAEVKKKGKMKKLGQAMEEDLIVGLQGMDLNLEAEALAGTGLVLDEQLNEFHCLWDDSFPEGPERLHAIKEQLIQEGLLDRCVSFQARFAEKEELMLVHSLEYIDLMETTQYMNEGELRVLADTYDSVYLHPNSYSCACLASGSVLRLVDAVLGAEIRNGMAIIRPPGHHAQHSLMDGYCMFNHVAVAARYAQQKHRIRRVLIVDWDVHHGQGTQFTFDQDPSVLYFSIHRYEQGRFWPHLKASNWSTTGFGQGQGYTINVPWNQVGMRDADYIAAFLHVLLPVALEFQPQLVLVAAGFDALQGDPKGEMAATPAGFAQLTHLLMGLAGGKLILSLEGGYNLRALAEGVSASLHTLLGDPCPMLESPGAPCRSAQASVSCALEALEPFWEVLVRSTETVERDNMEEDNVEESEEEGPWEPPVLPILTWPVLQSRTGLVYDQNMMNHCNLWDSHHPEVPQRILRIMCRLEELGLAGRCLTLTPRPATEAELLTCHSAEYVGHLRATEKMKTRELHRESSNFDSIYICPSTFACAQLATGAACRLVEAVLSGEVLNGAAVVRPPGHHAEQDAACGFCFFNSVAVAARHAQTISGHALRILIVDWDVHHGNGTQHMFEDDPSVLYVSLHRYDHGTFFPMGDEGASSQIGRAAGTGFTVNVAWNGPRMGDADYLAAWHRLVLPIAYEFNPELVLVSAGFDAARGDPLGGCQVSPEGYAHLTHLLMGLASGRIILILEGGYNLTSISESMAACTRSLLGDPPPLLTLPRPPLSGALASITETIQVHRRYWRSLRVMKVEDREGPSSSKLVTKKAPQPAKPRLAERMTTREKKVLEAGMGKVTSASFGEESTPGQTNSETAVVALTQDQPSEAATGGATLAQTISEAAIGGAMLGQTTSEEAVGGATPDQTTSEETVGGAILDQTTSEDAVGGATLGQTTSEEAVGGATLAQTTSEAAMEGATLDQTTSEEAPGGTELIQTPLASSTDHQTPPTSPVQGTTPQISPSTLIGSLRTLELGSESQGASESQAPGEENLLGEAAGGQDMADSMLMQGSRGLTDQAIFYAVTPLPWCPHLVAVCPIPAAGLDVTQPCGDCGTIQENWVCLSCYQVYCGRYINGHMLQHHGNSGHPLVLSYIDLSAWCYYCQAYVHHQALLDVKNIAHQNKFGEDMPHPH

Compound	IC50 (HDAC6 human recombinant)	IC50 (HDAC1)
CN1CCC(c2ccc3c(c2)C(C)(C)C(=O)N(Cc2ccc(-c4nnc(C(F)F)o4)cn2)C3=O)CC1 [Compound 44, 2-((5-(5-(difluoromethyl)-1,3,4-oxadiazole-2-yl)pyridine-2-yl)methyl)-4,4-dimethyl-6-(1-methylpiperidine-4-yl)isoquinoline-1,3(2H,4H)-dione]	0.019 µM	> 10 µM
Cn1c(=O)n(Cc2ccc(-c3nnc(C(F)F)o3)cn2)c(=O)c2ccc(-c3ccco3)cc21 [Compound 98, 3-((5-(5-(difluoromethyl)-1,3,4-oxadiazole-2-yl)pyridine-2-yl)methyl)-7-(furan-2-yl)-1-methylquinazoline-2,4(1H,3H)-dione]	0.047 µM	> 10 µM
O=C1c2ccccc2C2(CCC2)C(=O)N1Cc1ccc(-c2nnc(C(F)F)o2)cn1 [Compound 4, 2′-((5-(5-(difluoromethyl)-1,3,4-oxadiazole-2-yl)pyridine-2-yl)methyl)-1′H-spiro[cyclobutane-1,4′-isoquinoline]-1′,3′(2′H)-dione]	0.032 µM	> 10 µM
CC1(C)C(=O)N(Cc2ccc(-c3nnc(C(F)F)o3)cn2)C(=O)c2cc(C3CCN(C4COC4)CC3)ccc21 [Compound 55, 2-((5-(5-(difluoromethyl)-1,3,4-oxadiazole-2-yl)pyridine-2-yl)methyl)-4,4-dimethyl-7-(1-(oxetan-3-yl)piperidine-4-yl)isoquinoline-1,3(2H,4H)-dione]	0.02 µM	> 10 µM
CCCCN1CCN(c2ccc3c(c2)C(C)(C)C(=O)N(Cc2ccc(-c4nnc(C(F)F)o4)cn2)C3=O)CC1 [Compound 147, 6-(4-butylpiperazine-1-yl)-2-((5-(5-(difluoromethyl)-1,3,4-oxadiazole-2-yl)pyridine-2-yl)methyl)-4,4-dimethylisoquinoline-1,3(2H,4H)-dione]	0.069 µM	> 10 µM
CC1(C)C(=O)N(Cc2ccc(-c3nnc(C(F)F)o3)cn2)C(=O)c2cc(-c3ccccc3F)ccc21 [Compound 109, 2-((5-(5-(difluoromethyl)-1,3,4-oxadiazole-2-yl)pyridine-2-yl)methyl)-7-(2-fluorophenyl)-4,4-dimethylisoquinoline-1,3(2H,4H)-dione]	0.107 µM	> 10 µM
CC1(C)C(=O)N(Cc2ccc(-c3nnc(C(F)F)o3)cn2)C(=O)c2cc(-c3ccoc3)ccc21 [Compound 112, 2-((5-(5-(difluoromethyl)-1,3,4-oxadiazole-2-yl)pyridine-2-yl)methyl)-7-(furan-3-yl)-4,4-dimethylisoquinoline-1,3(2H,4H)-dione]	0.05 µM	> 10 µM
CC(=O)N1CCN(c2ccc3c(c2)C(C)(C)C(=O)N(Cc2ccc(-c4nnc(C(F)F)o4)cn2)C3=O)CC1 [Compound 34, 6-(4-acetylpiperazine-1-yl)-2-((5-(5-(difluoromethyl)-1,3,4-oxadiazole-2-yl)pyridine-2-yl)methyl)-4,4-dimethylisoquinoline-1,3(2H,4H)-dione]	0.027 µM	> 10 µM
CC1(C)C(=O)N(Cc2ccc(-c3nnc(C(F)F)o3)cn2)C(=O)c2cc(C3CCN(C4CCOC4)CC3)ccc21 (stereo not drawn) [Compound 146, 2-((5-(5-(difluoromethyl)-1,3,4-oxadiazole-2-yl)pyridine-2-yl)methyl)-4,4-dimethyl-7-(1-(tetrahydrofuran-3-yl)piperidine-4-yl)isoquinoline-1,3(2H,4H)-dione]	0.058 µM	> 10 µM
CC1(C)C(=O)N(Cc2ccc(-c3nnc(C(F)F)o3)cn2)C(=O)c2ccccc21 [Compound 8, 2-((5-(5-(difluoromethyl)-1,3,4-oxadiazole-2-yl)pyridine-2-yl)methyl)-4,4-dimethylisoquinoline-1,3(2H,4H)-dione]	0.03 µM	> 10 µM
CCCN1CCN(c2ccc3c(c2)C(=O)N(Cc2ccc(-c4nnc(C(F)F)o4)cn2)C(=O)C3(C)C)CC1 [Compound 130, 2-((5-(5-(difluoromethyl)-1,3,4-oxadiazole-2-yl)pyridine-2-yl)methyl)-4,4-dimethyl-7-(4-propylpiperazine-1-yl) isoquinoline-1,3(2H,4H)-dione]	0.03 µM	> 10 µM
CCN1CCC(c2ccc3c(c2)C(=O)N(Cc2ccc(-c4nnc(C(F)F)o4)cn2)C(=O)C3(C)C)CC1 [Compound 68, 2-((5-(5-(difluoromethyl)-1,3,4-oxadiazole-2-yl)pyridine-2-yl)methyl)-7-(1-ethylpiperidine-4-yl)-4,4-dimethylisoquinoline-1,3(2H,4H)-dione]	0.02 µM	> 10 µM
Cn1c(=O)n(Cc2ccc(-c3nnc(C(F)F)o3)cn2)c(=O)c2ccccc21 [Compound 18, 3-((5-(5-(difluoromethyl)-1,3,4-oxadiazole-2-yl)pyridine-2-yl)methyl)-1-methylquinazoline-2,4(1H,3H)-dione]	0.132 µM	> 10 µM
CC1(C)C(=O)N(Cc2ccc(-c3nnc(C(F)F)o3)cn2)C(=O)c2ccc(C3CCN(C4CCC4)CC3)cc21 [Compound 64, 6-(1-cyclobutylpiperidine-4-yl)-2-((5-(5-(difluoromethyl)-1,3,4-oxadiazole-2-yl)pyridine-2-yl)methyl)-4,4-dimethylisoquinoline-1,3(2H,4H)-dione]	0.025 µM	> 10 µM
O=C1c2ccc(Br)cc2C2(CCC2)C(=O)N1Cc1ccc(-c2nnc(C(F)F)o2)cn1 [Compound 106, 6′-bromo-2′-((5-(5-(difluoromethyl)-1,3,4-oxadiazole-2-yl)pyridine-2-yl)methyl)-1′H-spiro[cyclobutane-1,4′-isoquinoline]-1′,3′(2′H)-dione]	0.048 µM	> 10 µM
CC1(C)C(=O)N(Cc2ccc(-c3nnc(C(F)F)o3)cn2)C(=O)c2cc(-c3cccc(F)c3)ccc21 [Compound 108, 2-((5-(5-(difluoromethyl)-1,3,4-oxadiazole-2-yl)pyridine-2-yl)methyl)-7-(3-fluorophenyl)-4,4-dimethylisoquinoline-1,3(2H,4H)-dione]	0.211 µM	> 10 µM
O=C1c2ccccc2C(=O)N1Cc1ccc(-c2nnc(C(F)F)o2)cc1F [Compound 2, 2-(4-(5-(difluoromethyl)-1,3,4-oxadiazole-2-yl)-2-fluorobenzyl)isoindoline-1,3-dione]	0.561 µM	> 10 µM
CC1(C)C(=O)N(Cc2ccc(-c3nnc(C(F)F)o3)cn2)C(=O)c2ccc(N3C[C@@H]4C[C@H]3CN4S(C)(=O)=O)cc21 [Compound 58, 2-((5-(5-(difluoromethyl)-1,3,4-oxadiazole-2-yl)pyridine-2-yl)methyl)-4,4-dimethyl-6-((1S,4S)-5-(methylsulfonyl)-2,5-diazabicyclo[2.2.1]heptane-2-yl)isoquinoline-1,3(2H,4H)-dione]	0.014 µM	> 10 µM
CCCCCN1CCN(c2ccc3c(c2)C(C)(C)C(=O)N(Cc2ccc(-c4nnc(C(F)F)o4)cn2)C3=O)CC1 [Compound 45, 2-((5-(5-(difluoromethyl)-1,3,4-oxadiazole-2-yl)pyridine-2-yl)methyl)-4,4-dimethyl-6-(4-pentylpiperazine-1-yl)isoquinoline-1,3(2H,4H)-dione]	0.156 µM	> 10 µM
COCCn1c(=O)c2ccccc2n(Cc2ccc(-c3nnc(C(F)F)o3)cc2)c1=O [Compound 75, 1-(4-(5-(difluoromethyl)-1,3,4-oxadiazole-2-yl)benzyl)-3-(2-methoxyethyl)quinazoline-2,4(1H,3H)-dione]	0.368 µM	> 10 µM
CC(C)N1CCN(c2ccc3c(c2)C(=O)N(Cc2ccc(-c4nnc(C(F)F)o4)cn2)C(=O)C3(C)C)CC1 [Compound 119, 2-((5-(5-(difluoromethyl)-1,3,4-oxadiazole-2-yl)pyridine-2-yl)methyl)-7-(4-isopropylpiperazine-1-yl)-4,4-dimethylisoquinoline-1,3(2H,4H)-dione]	0.021 µM	> 10 µM
O=c1c2ccccc2n(CCN2CCOCC2)c(=O)n1Cc1ccc(-c2nnc(C(F)F)o2)cn1 [Compound 20, 3-((5-(5-(difluoromethyl)-1,3,4-oxadiazole-2-yl)pyridine-2-yl)methyl)-1-(2-morpholinoethyl)quinazoline-2,4(1H,3H)-dione]	0.159 µM	> 10 µM
O=c1c2ccccc2n(CCn2cccn2)c(=O)n1Cc1ccc(-c2nnc(C(F)F)o2)cn1 [Compound 21, 1-(2-(1H-pyrazole-1-yl)ethyl)-3-((5-(5-(difluoromethyl)-1,3,4-oxadiazole-2-yl)pyridine-2-yl)methyl)quinazoline-2,4(1H,3H)-dione]	0.273 µM	> 10 µM
CC1(C)C(=O)N(Cc2ccc(-c3nnc(C(F)F)o3)cn2)C(=O)c2cc(-c3ccco3)ccc21 [Compound 113, 2-((5-(5-(difluoromethyl)-1,3,4-oxadiazole-2-yl)pyridine-2-yl)methyl)-7-(furan-2-yl)-4,4-dimethylisoquinoline-1,3(2H,4H)-dione]	0.043 µM	> 10 µM
CC(C)N1CCC(c2ccc3c(c2)C(C)(C)C(=O)N(Cc2ccc(-c4nnc(C(F)F)o4)cn2)C3=O)CC1 [Compound 60, 2-((5-(5-(difluoromethyl)-1,3,4-oxadiazole-2-yl)pyridine-2-yl)methyl)-6-(1-isopropylpiperidine-4-yl)-4,4-dimethylisoquinoline-1,3(2H,4H)-dione]	0.022 µM	> 10 µM
CCN1CCC(c2ccc3c(c2)C(C)(C)C(=O)N(Cc2ncc(-c4nnc(C(F)F)o4)cn2)C3=O)CC1 [Compound 156, 2-((5-(5-(difluoromethyl)-1,3,4-oxadiazole-2-yl)pyrimidine-2-yl)methyl)-6-(1-ethylpiperidine-4-yl)-4,4-dimethylisoquinoline-1,3(2H,4H)-dione]	0.056 µM	> 10 µM
CN(C)[C@@H]1CCN(c2ccc3c(c2)C(C)(C)C(=O)N(Cc2ccc(-c4nnc(C(F)F)o4)cn2)C3=O)C1 [Compound 32, (R)-2-((5-(5-(difluoromethyl)-1,3,4-oxadiazole-2-yl)pyridine-2-yl)methyl)-6-(3-(dimethylamino)pyrrolidine-1-yl)-4,4-dimethylisoquinoline-1,3(2H,4H)-dione]	0.025 µM	> 10 µM
